This is an account of results in US8999983B2, “Modulators of Hec1 activity and methods therefor” (Taivex Therapeutics Corporation, priority 2011, dated 2015).

Structures are written as SMILES.

One test concerns cancer cells. The test can be described thus: DNA content analysis (propidium iodide, FACS). The format is cell-based. How it is done:
DNA Content Analysis: Cells were plated in a 10-cm culture plate and cultured overnight. Cells were incubated with the compound for the indicated time and collected at the indicated time points. Cells were fixed with 70% ethanol overnight, stained with propidium iodide solution (1.25 mg/ml propidium iodide (Sigma) and 20 μl/ml […] in PBS) and subjected to fluorescence activated cell sorting (FACS). The results were analyzed by Cell Quest software (BD Biosciences, San Jose Calif. 95131 USA).

The subject of another test is MDA-MB-231. Nature of the test: Antiproliferation assay (MTS), MDA-MB-231 cells. The format is cell-based. The conditions noted are these: Homo sapiens, MDA-MB-231, 96 h, read-out: Antiproliferative IC50 MDA-MB-231, Table 1. In a few lines:
(§1)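 Cells seeded after overnight attachment were treated in triplicate for 96 h at 37 °C, 5% CO2, final DMSO below 1%. Viability read by MTS absorbance; concentration-response curves fitted by linear regression against DMSO controls.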

For another test, the system named is BT474 xenograft. Nature of the test: Mouse xenograft study, BT474 breast cancer. It counts as in vivo, nude mice. How it is done:
Mouse Xenograft Studies: Xenograft studies adapted from a previous published protocol (Wu et al, Cancer Res. 2008 Oct. 15; 68(20):8393-9). Female BALB/c nude (nu/nu) mice (5-8 weeks) were obtained from Lasco (Industrial Park, Tai-Ping Area, Taichung City, Taiwan). The animals were maintained under specific pathogen-free conditions, and food and water were supplied ad libitum. Housing and all procedures involving animals were performed according to protocols approved by the IACUC in DCB. Nude mice were inoculated with 17-β-estradiol pellets 72 to 96 h before implantation of BT-474 cells. For subcutaneous implantation of BT-474 cells, cells (1×10^7 in matrix gel/animal) were injected subcutaneously into the right subaxillary region. Treatment started when average tumor volume reached about 200 mm^3; mice were treated (p.o., QD/28 cycles in total) with vehicle A (0.5% methylcellulose), or candidate compounds formulated in vehicle A (10-50 mg/kg body weight). Perpendicular diameter measurement of each tumor were made with digital calipers and the volume of the tumor calculated using formula (L×W×W)/2, in which L and W represent the length and the width, respectively. Body weights were measured three times weekly.
The in vivo effectiveness of contemplated compounds in the reduction of tumor volume in nude mice is readily apparent.
Development of resistance to treatment in advanced stage tumors is a well known phenomenon. Activity of select Hec1 inhibitor in such late stage tumors was determined by re-dosing of BT474 xenografted animals that had previously subjected to 35 days of treatment with 110095 (compound 27 of Table 1). Re-treatment with 110095 was starting on day 42 and continued for 21 days.

Another test deals with K562. Nature of the test: Antiproliferation assay (MTS), K562 cells. The format is cell-based. Particulars: Homo sapiens, K562, 96 h, Table 1, read-out: Antiproliferative IC50 K562. A digest of the protocol:
as §1

In another test the test system is Hela. Nature of the test: Antiproliferation assay (MTS), HeLa cells. It counts as cell-based. Particulars: Homo sapiens, 96 h, Table 1, read-out: Antiproliferative IC50 Hela. In a few lines: as §1
The subject of another test is Huh-7 xenograft. Nature of the test: Mouse xenograft study, Huh-7 liver cancer. The format is in vivo. The conditions noted are these: Huh-7 liver cancer xenograft, nude mice.
Another test has as its target T1, hERG potassium channels (Homo sapiens, UniProt Q12809).
T1 construct: purchased PerkinElmer
Nature of the test: [3H]Astemizole competitive binding assay, hERG. Particulars: [3H]-astemizole displacement, hERG membrane protein. How it is done: Here, [3H] Astemizole competitive binding assays were performed to determine the ability of compounds to displace the known radioligand [3H]-astemizole from the hERG potassium channels, following standard protocol with minor modifications. In brief, assays were performed in 200 μl of binding buffer (50 mM HEPES, pH 7.4, 60 mM KCl, and 0.1% BSA) containing 1.5 nM of [3H]astemizole, 3 μg/well of hERG membrane protein (PerkinElmer), and TAI-1 (in 1% DMSO final concentration) at 27° C. for 60 min. Nonspecific binding (NSB) was determined in the presence of 10 μM astemizole. […] Binding was terminated by rapid filtration onto polyethyleneimine-presoaked, buffer-washed UniFilter-96, GF/C (Perkin Elmer) using a vacuum manifold (Porvair Sciences). Captured radiolabel signal was detected using TopCount NXT (Perkin Elmer). […] All results are derived from two independent experiments.
Background: Block of hERG is tested as a sign of cardiac risk.

Another test deals with cyclin B1 and cyclin D1. Nature of the test: Immunoblot of cyclin B1 and cyclin D1. The conditions noted are these: 1 μM. It counts as cell-based. How it is done:
Immunoblot Analysis: For immunoblotting experiments, cells were plated in a 6-well culture plate and cultured overnight. Cells were incubated with the test compounds for the indicated time and whole cell lysate was harvested by adding 1×SDS-PAGE Sample Buffer (62.5 mM Tris-HCl (pH 6.8 at 25° C.), 2% w/v SDS, 10% glycerol, 50 mM DTT, and 0.01% w/v bromophenol blue or phenol red). Proteins were separated by SDS-PAGE electrophoresis and transferred to PVDF membrane. Protein expression was immunoblotted using various primary antibodies and detected using Immobilon Western Chemiluminescent HRP Substrate (Millipore, Billerica Mass. 01821 USA). Antibodies used include anti-Cleaved Caspase3, (Rabbit, Cell Signaling Technology, Danvers Mass. 01923 USA); anti-PARP (Rabbit, Cell Signaling Technology, Danvers Mass. 01923 USA); anti-MCL-1 (mouse, BD Biosciences, San Jose Calif. 95131 USA); anti-XIAP (rabbit, Cell Signaling Technology, Danvers Mass. 01923 USA); anti-Bcl-2 (mouse, Santa Cruz Biotechnology, Santa Cruz Calif. 95060); anti-Cyclin BI (mouse, BD Biosciences, San Jose Calif. 95131 USA); anti-Cyclin D1 (mouse, Santa Cruz Biotechnology, Santa Cruz Calif. 95060); Anti-Nek2 (mouse, BD Biosciences, San Jose Calif. 95131 USA); Anti-HEC1, (rabbit, GeneTex, Inc., Irvine Calif. 92606 USA); and anti-actin (mouse, Millipore, Billerica Mass. 01821 USA). […]
Background: In western blotting, separated proteins are transferred to a membrane and probed.

T1 sequence (Q12809 whole entry): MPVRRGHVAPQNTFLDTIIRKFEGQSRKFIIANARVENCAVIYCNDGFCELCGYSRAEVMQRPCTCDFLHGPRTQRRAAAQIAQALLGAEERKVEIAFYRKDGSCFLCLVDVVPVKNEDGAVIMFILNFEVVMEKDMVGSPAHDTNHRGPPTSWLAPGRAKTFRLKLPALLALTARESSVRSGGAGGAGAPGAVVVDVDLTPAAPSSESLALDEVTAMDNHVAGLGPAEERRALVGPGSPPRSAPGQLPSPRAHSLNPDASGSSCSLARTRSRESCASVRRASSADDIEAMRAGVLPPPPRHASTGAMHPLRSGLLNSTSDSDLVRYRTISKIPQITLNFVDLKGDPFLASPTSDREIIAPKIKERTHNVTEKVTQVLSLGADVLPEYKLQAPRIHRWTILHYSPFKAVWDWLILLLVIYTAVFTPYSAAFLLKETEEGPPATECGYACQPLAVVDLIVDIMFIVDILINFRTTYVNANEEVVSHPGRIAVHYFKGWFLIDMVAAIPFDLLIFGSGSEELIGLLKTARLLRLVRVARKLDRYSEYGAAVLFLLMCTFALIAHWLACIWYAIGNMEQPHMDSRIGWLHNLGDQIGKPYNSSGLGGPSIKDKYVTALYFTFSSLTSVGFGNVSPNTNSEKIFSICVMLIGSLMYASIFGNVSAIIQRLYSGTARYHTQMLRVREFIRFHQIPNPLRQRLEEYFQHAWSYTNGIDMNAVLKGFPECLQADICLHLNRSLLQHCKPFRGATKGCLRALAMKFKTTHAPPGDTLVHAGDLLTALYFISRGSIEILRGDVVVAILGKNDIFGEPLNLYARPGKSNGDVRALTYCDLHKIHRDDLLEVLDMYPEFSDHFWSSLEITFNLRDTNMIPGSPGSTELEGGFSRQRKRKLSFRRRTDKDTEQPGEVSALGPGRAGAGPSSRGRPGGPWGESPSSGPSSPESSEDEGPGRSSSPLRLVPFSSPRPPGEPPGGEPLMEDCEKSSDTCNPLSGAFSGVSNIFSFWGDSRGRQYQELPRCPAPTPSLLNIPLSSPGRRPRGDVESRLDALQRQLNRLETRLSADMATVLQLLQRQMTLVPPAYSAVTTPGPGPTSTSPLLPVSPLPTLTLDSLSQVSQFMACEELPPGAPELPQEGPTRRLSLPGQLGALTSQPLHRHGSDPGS

`COCCOc1cnc(Sc2cc(C)c(-c3csc(NC(=O)c4ccncc4)n3)c(C)c2)cn1` [Compound 27, N-(4-{4-(5-(2-methoxyethoxy)pyrazin-2-ylthio)-2,6-dimethylphenyl}thiazol-2-yl)isonicotinamide]: the “sub-G1 population (apoptotic cells)” value in the test on cancer cells is listed as “increase in the sub-G1 population”. Further, the IC50 – broadly, the concentration that inhibits the measured activity by half – in the test with MDA-MB-231 is 35.1 nM; in the test with K562 it was 18 nM; with Hela it was 21.1 nM; on hERG potassium channels, more than 10000 nM. The xenograft tumor outgrowth result was “inhibition of xenograft tumor outgrowth” in the test with BT474 xenograft (BT474 breast cancer xenograft, nude mice) and “inhibition of xenograft tumor outgrowth” in the test on Huh-7 xenograft. Further, in the test on BT474 xenograft (BT474 xenografted animals after 35 days of treatment, re-treatment from day 42 for 21 days), the “activity in late stage tumors on re-treatment” value is on record as “remained effective with late stage tumors”. Also, the “cyclin B1 and cyclin D1 levels” value with cyclin B1 and cyclin D1 is “cyclin BI and cyclin D degradation”.
